Where two headings read alike, the source gives them in different places.
Tests used:
[1] = system: P388/MTX; assay: Survival of P388/MTX (MTX-resistant P388) bearing mice, in vivo; design: species or system murine; settings: ip; for survival time: control 17.2 days; for % T/C: survival time
Text: (§1) Comparison of the Response of Murine P388/0
(§2) ^a Implant: ip, 10^6 cells; method described by Geran et al,
(§3) Cancer Chemother. Rep. Part 3, Vol. 3 (2) (1972).

[2] = system: L1210 cells; assay: L1210 cell growth inhibition in culture; assay type: cell-based; settings: for IC50: Mus musculus; for potency in the L1210 cell growth inhibition test relative to 5-deazamethotrexate: compared with 5-deazamethotrexate; for potency in the L1210 cell growth inhibition test relative to MTX: compared with MTX
Text: (§4) (a) Methods are described by Sirotnak et al, "Molecular Actions and
(§5) Targets for Cancer Chemotherapy Agents", Sartorelli, A.C. Ed., Academic
(§6) Press., New York, pps. 349-383 (1981); Sirotnak et al, Biochem.
(§7) Pharmacol., Vol. 29, p. 3293 (1980); and Sirotnak et al, Cancer Res., Vol

[3] = system: P388/0; assay: Survival of P388/0 bearing mice, in vivo; design: species or system murine; settings: for survival time: P388/0, ip, control 10.8 days; for % T/C: P388/0, survival time, ip
Text: as §1, §2, §3

[4] = system: EO771 mammary adenocarcinoma; assay: Antitumor effects against the EO771 mammary adenocarcinoma in mice; assay type: in vivo; settings: once per day for five days; for T/C (tumor volume treated/control) / tumor free total / AWC (average weight change): day 7; for toxic deaths total: day 7, 14 or 21; for ave. tumor vol.: day 7, ± SE, control 225 ± 60; for tumor free total: control 0/14
Text: 5-Methyl-5-Deazamethotrexate (20) Against the EO771
Mammary Adenocarcinoma. Average of Two Separate
Experiments (5 Mice/Group) ± SE of the Mean.
^1 given once per day for five days starting one day after tumor
^2 average weight change on day 7 (one day after cessation of therapy
^3 assessed on day 7, 14 or 21
^4 assessed on day 7 (4/3 πr^3) T/C = treated/control
^5 assessed on day 7 (one day after cessation of therapy)

[5] = system: L1210 cells; assay: Mediated transport (influx, efflux) in L1210 cells; assay type: cell-based; settings: n = 3-4, SE; for Km: influx
Text: as §4, §5, §6, §7

[6] = system: L1210 cells; assay: Rate of net polyglutamate formation in L1210 cells; assay type: cell-based; settings: for order of initial rates of polyglutamate accumulation: comparable rates of drug entry; for Rate of net polyglutamate formation: conditions of comparable rates of drug entry
[7] = qd 1-5, optimal dose 0.25 mg/kg
[8] = read-out: Cell Growth inhibn IC50 (n = 4) ± SE, L1210 cells, n = 4, ± SE

## Cc1c(CN(C)c2ccc(C(=O)N[C@@H](CCC(=O)O)C(=O)O)cc2)cnc2nc(N)nc(N)c12 [Compound 20, N-[4-[[2,4-Diamino-5-methylpyrido[2,3-d]pyrimidin-6-yl)methyl]methylamino]benzoyl-L-glutamic Acid]
[1]; [7]
  survival time: 20.8 days
  % T/C: 120%
[2]; [8]
  IC50: 0.24 ± 0.03 nM
[2]
  potency in the L1210 cell growth inhibition test relative to 5-deazamethotrexate: more than 10 times
  potency in the L1210 cell growth inhibition test relative to MTX: 10 times
[3]; qd 1-5, optimal dose 1 mg/kg
  survival time: 19.7 days
  % T/C: 182%
[4]; 0.375 mg/kg
  T/C (tumor volume treated/control): 0.25
  toxic deaths total: 0/10
  ave. tumor vol.: 50 ± 16 mm^3
  tumor free total: 0/10
[4]; 0.75 mg/kg
  T/C (tumor volume treated/control): 0.13
  toxic deaths total: 0/10
  ave. tumor vol.: 35 ± 10 mm^3
  tumor free total: 1/10
[4]; 1.5 mg/kg
  T/C (tumor volume treated/control): 0.03
  toxic deaths total: 0/10
  ave. tumor vol.: 4 ± 2 mm^3
  tumor free total: 6/10
[4]; 3.0 mg/kg
  T/C (tumor volume treated/control): 0.02
  toxic deaths total: 5/6
  ave. tumor vol.: 3 ± 1 mm^3
  tumor free total: toxic
[5]
  Mediated Transport efflux k + SE: 0.31 ± 0.05 min⁻¹
  Km: 3.2 ± 0.4 µM
[6]
  order of initial rates of polyglutamate accumulation: AMT>5-Me-5-dAMT>5-dAMT>MTX>5-dMTX>5-Me5-dMTX
  Rate of net polyglutamate formation: 42.9 pM/min/g dry wt

## CN(Cc1cnc2nc(N)nc(N)c2c1)c1ccc(C(=O)N[C@@H](CCC(=O)O)C(=O)O)cc1 [Compound 5-dMTX, 5-deazamethotrexate, reference compound]
[1]; qd 1-5, optimal dose 4 mg/kg
  survival time: 20.3 days
  % T/C: 118%
[2]; [8]
  IC50: 2.85 ± 0.3 nM
[3]; qd 1-5, optimal dose 4 mg/kg
  survival time: 18.0 days
  % T/C: 166%
[5]
  Mediated Transport efflux k + SE: 0.28 ± 0.04 min⁻¹
  Km: 4 ± 0.5 µM
[6]
  order of initial rates of polyglutamate accumulation: AMT>5-Me-5-dAMT>5-dAMT>MTX>5-dMTX>5-Me5-dMTX
  Rate of net polyglutamate formation: 48.8 pM/min/g dry wt

## Cc1c(CNc2ccc(C(=O)N[C@@H](CCC(=O)O)C(=O)O)cc2)cnc2nc(N)nc(N)c12 [Compound 12]
[1]; qd 1-5, optimal dose 0.5 mg/kg
  survival time: 20.8 days
  % T/C: 120%
[2]; L1210, read-out: Cell Growth inhibn IC50 (n = 4) ± SE
  IC50: 1.29 ± 0.2 nM
[3]; qd 1-5, optimal dose 0.5 mg/kg
  survival time: 16.4 days
  % T/C: 151%
[5]
  Mediated Transport efflux k + SE: 0.26 ± 0.05 min⁻¹
  Km: 1.2 ± 0.2 µM
[6]
  order of initial rates of polyglutamate accumulation: AMT>5-Me-5-dAMT>5-dAMT>MTX>5-dMTX>5-Me5-dMTX
  Rate of net polyglutamate formation: 98.3 pM/min/g dry wt

## CCN(Cc1cnc2nc(N)nc(N)c2c1C)c1ccc(C(=O)N[C@@H](CCC(=O)O)C(=O)O)cc1 [Compound 21]
[2]; [8]
  IC50: 0.26 ± 0.02 nM
[2]
  potency in the L1210 cell growth inhibition test relative to 5-deazamethotrexate: more than 10 times
  potency in the L1210 cell growth inhibition test relative to MTX: 10 times
[5]
  Mediated Transport efflux k + SE: 0.29 ± 0.04 min⁻¹
  Km: 3.3 ± 0.5 µM

## Nc1nc(N)c2cc(CNc3ccc(C(=O)N[C@@H](CCC(=O)O)C(=O)O)cc3)cnc2n1 [Compound 11]
[1]; qd 1-5, optimal dose 2 mg/kg
  survival time: 21.8 days
  % T/C: 126%
[2]; [8]
  IC50: 0.63 ± 0.07 nM
[3]; qd 1-5, optimal dose 0.5 mg/kg
  survival time: 15.8 days
  % T/C: 146%
[5]
  Mediated Transport efflux k + SE: 0.30 ± 0.04 min⁻¹
  Km: 1.1 ± 0.2 µM
[6]
  order of initial rates of polyglutamate accumulation: AMT>5-Me-5-dAMT>5-dAMT>MTX>5-dMTX>5-Me5-dMTX
  Rate of net polyglutamate formation: 84.2 pM/min/g dry wt

## CCOC(=O)CC[C@H](NC(=O)c1ccc(NCc2cnc3nc(N)nc(N)c3c2)cc1)C(=O)OCC [Compound 9, N-[4-[[(2,4-Diaminopyrido[2,3-d]pyrimidin-6-yl)methyl]-amino]benzoyl]-L-glutamic Acid Diethyl Ester]
[1]; qd 1-5, optimal dose 1 mg/kg
  survival time: 20.8 days
  % T/C: 120%
[3]; qd 1-5, optimal dose 1 mg/kg
  survival time: 16.2 days
  % T/C: 151%

## CN(Cc1cnc2nc(N)nc(N)c2n1)c1ccc(C(=O)N[C@@H](CCC(=O)O)C(=O)O)cc1 [MTX, Methotrexate, reference compound]
[1]; qd 1-5, optimal dose 3.5 mg/kg
  survival time: 20.3 days
  % T/C: 118%
[3]; qd 1-5, optimal dose 4 mg/kg
  survival time: 19.7 days
  % T/C: 182%
[4]; 1.5 mg/kg
  AWC (average weight change): +0.9 g
  T/C (tumor volume treated/control): 0.60
  toxic deaths total: 0/10
  ave. tumor vol.: 102 ± 32 mm^3
  tumor free total: 1/10
[4]; 3.0 mg/kg
  AWC (average weight change): -0.2 g
  T/C (tumor volume treated/control): 0.61
  toxic deaths total: 0/10
  ave. tumor vol.: 108 ± 24 mm^3
  tumor free total: 1/10
[4]; 6.0 mg/kg
  AWC (average weight change): -2.1 g
  T/C (tumor volume treated/control): 0.12
  toxic deaths total: 4/10
  ave. tumor vol.: 22 ± 5 mm^3
  tumor free total: toxic
[5]
  Mediated Transport efflux k + SE: 0.33 ± 0.06 min⁻¹
  Km: 3.3 ± 0.7 µM
[6]
  order of initial rates of polyglutamate accumulation: AMT>5-Me-5-dAMT>5-dAMT>MTX>5-dMTX>5-Me5-dMTX
